Measurements published in US20170112792A1, “ENHANCED ATRA-RELATED COMPOUNDS DERIVED FROM STRUCTURE-ACTIVITY RELATIONSHIPS AND MODELING FOR INHIBITING PIN1” (Beth Israel Deaconess Medical Center, Inc., priority 2014, published 2017).

Assays:
DC2.4 cells = experiment: IL-33-induced gene expression in DC2.4 cells expressing IRAKM or mutants; assay type: cell-based, mouse
Source text: In the left panels, western blots show protein levels of IRAKM, Pin1 and tubulin. The right panels show the relative gene expression of IL-6, CXCL2, CSF3 and CCL5 in the different samples normalized to actin.

GST-FKBP12 = GST-FKBP12 (Homo sapiens, UniProt P62942); experiment: chymotrypsin coupled PPlase activity assay, FKBP12; assay type: biochemical
IL-33-induced asthma = IL-33-induced asthma in mice
[1] = test system: BMDCs co-cultured with naive CD4+ cells; experiment: IL-33-induced TH2 polarization, BMDC / naive CD4+ T cell coculture; details: IL-33 50 ng/ml, 5 μM ATRA
Method: BMDCs were isolated from WT or Pin1 KO mice in a 1:5 ratio for 5 days with no antigen being added. […] Supernatants were analyzed for cytokines on day 5.
To examine whether Pin1 is required for IL-33-induced TH2 polarization, we evaluated the effects of Pin1 KO derived dendritic cells in IL-33-induced TH2 polarization by co-culturing bone marrow dendritic cells (BMDCs) derived from WT or Pin1 KO mice with WT naïve CD4^+ cells. The cells were treated with IL-33 and resultant IL-5 and IL-13 were measured.

Pin1 [2] = target: T1, Pin1 (Homo sapiens, UniProt Q13526); experiment: photoaffinity labeling of Pin1 with [3H]ATRA; assay type: binding; details: read-out: equilibrium dissociation constant Kd
T1 construct: His6 (N); made in house; host or cells: E. coli (inferred: pET28, IPTG induction, LB culture; BL21(DE3) is printed only for the WW domain)
Method: […] of Pin1 was incubated in microcentrifuge tubes with a series of concentrations of all-trans-[11,12-^3H]-retinoic acid (PerkinElmer, 43.7 Ci/mmol) in 20 μl of the FP assay buffer at 23° C. with agitation for 2 hours in the dark. The caps of the microcentrifuge tubes were opened, and the samples were placed on ice and exposed to an Electrophoresis System 365/254 nm UV hand lamp (Fisher Scientific) suspended 6 cm above the surface of the liquid for 15 minutes. The samples were boiled in SDS sample buffer and subsequently separated on standard SDS/PAGE gels. The gels were dried and then used for fluorography at −80° C. for 5 days and quantified using Quantity One from BioRad.

Pin1 [3] = experiment: Pin1 protein level, mRNA and stability in MEFs (immunoblot, RT-PCR, CHX chase); assay type: cell-based, mouse
Method: RNA from cells was extracted with the Total RNA isolation mini kit (Agilent). cDNA was prepared with transcriptor first strand cDNA synthesis kit (Roche) and PCR was carried out with iQ SYBR Green Supermix (Bio-Rad) or SYBR Green PCR Master Mix (Applied Blosystems). 1 μl cDNA was used for each RT-PCR reaction. Samples were run on the QIAGEN Rotor-Gene Q real-time cycler or the Applied Biosystems StepOnePlus Real Time PCR instrument. GAPDH was used as an internal control. Analysis was performed with the ^ΔΔCt method. The following primers were used: […]

Pin1 and PML-RARα = Pin1 and PML-RARα immunostaining in bone marrow of APL patients
Method: Tissue samples were washed with PBS and fixed with 4% paraformaldehyde at room temperature for 20 minutes, followed by permeabilization and blocking with PBS containing 0.1% Triton X-100 and 5% FBS for 1 hour. After another wash with PBS, immunostaining was performed by incubating the cells with mouse anti-Pin1 (1:1000), or rabbit anti-PML (Santa Cruz; 1:100) primary antibodies at 4° overnight. Primary antibodies were diluted in PBS containing 0.1% Triton X-100, 0.2% BSA, 0.5 mM PMSF, and 1 mM dithiothreitol. […] Samples were nuclear counterstained with 4,6-diamidino-2-phenylindole (DAPI), mounted and visualized with a LSM510 confocal imaging system.
Bone marrow aspirates were obtained with informed consent from the iliac crest of patients in whom the diagnosis of acute promyelocytic leukemia was suspected based on the morphological evaluation of peripheral blood smear. […] Samples tested positive for the PML/RARα rearrangement by RT-PCR.

[4] = test system: APL cells isolated from hCG-PML-RARα transgenic mice; details: same regimens
[5] = test system: Pin1 and PML-RARα in NB4 cells; experiment: immunoblot of Pin1 and PML-RARα in APL NB4 cells; assay type: cell-based, human
Method: (§2) For immunoprecipitation and immunoblotting in the examples below, cells were polyethylenimine (PEI)- or lipofemamine-transfected with 8 μg of various plasmids, incubated in 10 cm dishes for 24 hours, and subsequently treatment with drugs as needed. […] After centrifugation at 13,000 g for 10 minutes, one tenth of the supernatant was stored as input, and the remainder was incubated 12 hours with M2 Flag agarose (Sigma). After brief centrifugation, immunoprecipitates were collected, extensively washed with the aforementioned lysis buffer twice, suspended in 2×SDS sample buffer (100 mM Tris-HCl, pH 6.8, 4% SDS, 5% β-mercaptoethanol, 20% glycerol, and 0.1% bromphenol blue), boiled for 10 minutes, and subjected to immunoblotting analysis. […] After electrophoresis, gel was transferred to nitrocellulose membranes using a semidry transfer cell. The transblotted membrane was washed twice with Tris-buffered saline containing 0.1% Tween 20 (TBST). After blocking with TBST containing 5% bovine serum albumin (BSA) for 1 hour, the membrane was incubated with the appropriate primary antibody (diluted 1:1000) in 2% BSA-containing TBST at 4° C. overnight. After incubation with the primary antibody, the membrane was washed three times with TBST for a total of 30 minutes followed by incubation with horseradish peroxidase (HRP)-conjugated goat anti-rabbit or anti-mouse IgG (diluted 1:2500) for 1 hour at room temperature. After three extensive washes with TBST for a total of 30 minutes, the immunoblots were visualized by enhanced chemiluminescence.

[6] = test system: human normal and breast cancer cell lines; experiment: cell growth of human normal and breast cancer cell lines; assay type: cell-based; details: 72 hours
Method: (§1) Absorbance was determined at 570 nm.
To test this possibility, we chose breast cancer as a model due to the substantial oncogenic role of Pin1 in vitro and in vivo.

GST-Pin1 [7] = target: T2, GST-Pin1 (Homo sapiens, UniProt Q13526); experiment: chymotrypsin coupled PPlase activity assay, Pin1; assay type: biochemical
Source text: where Km is the Michaelis constant for the used substrate, S is the initial concentration of the substrate in the assay, and the IC50 value is of the inhibitor.

GST-cyclophilin = experiment: chymotrypsin coupled PPlase activity assay, cyclophilin
MRL/lpr lupus prone mice = experiment: MRL/lpr lupus prone mice
[8] = test system: Pin1 and its substrate oncogenes and tumor suppressors; experiment: immunoblot of Pin1 and its substrate proteins in breast cells
Method: as §2

[9] = test system: NIH3T3 cells stably expressing Flag-tagged Pin1; experiment: centrosome amplification induced by Pin1 overexpression; details: 72 hours
Method: Tissue samples were washed with PBS and fixed with 4% paraformaldehyde at room temperature for 20 minutes, followed by permeabilization and blocking with PBS containing 0.1% Triton X-100 and 5% FBS for 1 hour. After another wash with PBS, immunostaining was performed by incubating the cells with mouse anti-Pin1 (1:1000), or rabbit anti-PML (Santa Cruz; 1:100) primary antibodies at 4° overnight. Primary antibodies were diluted in PBS containing 0.1% Triton X-100, 0.2% BSA, 0.5 mM PMSF, and 1 mM dithiothreitol. […] Samples were nuclear counterstained with 4,6-diamidino-2-phenylindole (DAPI), mounted and visualized with a LSM510 confocal imaging system. For centrosome duplication assays, NIH3T3 cells were used. Cells were synchronized in G1/S phase by adding 10 μg/ml aphidicolin for 24 hours, then fixed with 4% paraformaldehyde at room temperature for 20 minutes. Cells were then stained for centrosomes with anti-γ-tubulin antibodies (Sigma; 1:100) and analyzed by confocal microscopy.

human APL NB4 cells = experiment: NB4 cell growth; assay type: cell-based
Method: as §1

[10] = humans; cited from earlier work
[11] = test system: Pin1 WT and Pin1 KO mouse embryonic fibroblasts (MEFs); experiment: cell growth of Pin1 WT and KO MEFs
Method: For cell growth assays described below, cells were seeded in a density of 3000 cells per well in 96-well flat-bottomed plates, and incubated for 24 h in 10% FBS-supplemented DMEM culture medium. […] Control cells received DMSO at a concentration equal to that in drug-treated cells. After 72 hours, the number of cells was counted after trypsin digestion, or medium containing 0.5 mg/ml 3-(4,5-dimethylthiazol-2-yl)-2,5-diphenyl-2H-tetrazolium bromide was added to each well for 2 hours of incubation at 37° C., followed by removal of the media before the addition of 200 μl DMSO. Absorbance was determined at 570 nm.

GST-Pin1 [12] = target: T2, GST-Pin1; experiment: fluorescence polarization (FP) pTide competition assay / FP-HTS
Source text: This sequence was optimized for solubility and binding to GST-PPI. […] Measurements of fluorescence polarization and fluorescence absorbance were made in black 384-well plates (Corning) using a Synergy II plate reader. Compounds were transferred to plates using a custom-built Seiko pin-transfer robot at the Institute for Chemistry and Cell Biology at Harvard Medical School. The assay can tolerate up to 10%/o DMSO.
Molecules that compete with pTide for binding to the active site, e.g., Pin1 substrates, were detected under equilibrium conditions. A Z score was used to identify and rank those molecules that were most competitive with pTide (e.g., that have higher binding affinity). A Z score is defined as Z=(x−μ)/σ, where x is a raw score, μ is the mean of the population, and σ is the standard deviation of the population. Molecules with the most negative Z scores represent those with the highest Pin1 binding affinity. The Z′ value for this assay was around 0.70 and was consistent for day-to-day performance, with a coefficient of variation in the range of 4-5%.
A lower value of Ki is indicative of higher association and, accordingly, higher affinity of the substrate to the protein.

RAR = experiment: transactivation of RAR downstream target genes
cyclin D1 promoter = cyclin D1 promoter luciferase activity with Pin1 overexpression; details: 72 hours
MDA-MB-231 cells = experiment: MDA-MB-231 xenograft in nude mice
Source text: In pilot experiments, MDA-MB-231 cells were subcutaneously injected into female nude mice in the flank.

MDA-MB-468 cells = experiment: MDA-MB-468 xenograft in nude mice
Method: Tumor sizes were measured weekly and mice were sacrificed after 7 weeks to collect tumor tissues (37D). […] Pin1 and cyclin D1 in xenograft tumors were assayed by IB (37F).

SKBR3 cells = experiment: foci formation assay with Pin1 overexpression
[13] = three sensitive cancer cell lines, 72 hours
[14] = 5 or 10 mg 21 day pellets implanted 1 week after inoculation
[15] = cells stably expressing Flag-Pin1, ATRA implants

T2 sequence (Q13526 whole entry): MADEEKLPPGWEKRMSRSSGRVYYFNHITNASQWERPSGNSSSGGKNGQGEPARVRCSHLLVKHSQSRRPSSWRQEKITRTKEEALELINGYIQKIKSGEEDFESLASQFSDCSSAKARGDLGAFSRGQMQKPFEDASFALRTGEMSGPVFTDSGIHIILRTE
GST-FKBP12, sequence (P62942 whole entry): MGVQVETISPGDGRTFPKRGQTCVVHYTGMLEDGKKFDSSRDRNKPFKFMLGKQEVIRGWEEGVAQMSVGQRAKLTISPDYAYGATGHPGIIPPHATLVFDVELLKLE
T1 sequence (Q13526 whole entry, the tested form may be a part): as the sequence (Q13526 whole entry) above

- inhibition of FKBP12 (GST-FKBP12): did not inhibit
- Kd (Pin1 [2]): 800 nM
- inhibition of PPlase activity of Pin1 (GST-Pin1 [7]): fully inhibited
- Ki (GST-Pin1 [7]; Cheng-Prusoff equation, read-out: Ki from PPlase assay): 820 nM
- inhibition of cyclophilin (GST-cyclophilin): did not inhibit
- competition with TAMRA-conjugated pTide for Pin1 (GST-Pin1 [12]; TAMRA-labeled probe): competitive
- Pin1-induced activation of the cyclin D1 promoter (cyclin D1 promoter): dose-dependently and fully inhibited
Compound: CC1=C(/C=C/C(C)=C/C=C/C(C)=C/C(=O)O)C(C)(C)CCC1 [ATRA, (2E,4E,6E,8E)-3,7-dimethyl-9-(2,6,6-trimethylcyclohexen-1-yl)nona-2,4,6,8-tetraenoic acid]
- reduction of target gene expression in IRAKM P111A cells (DC2.4 cells): completely abolished
- Pin1 expression (DC2.4 cells; 5 or 10 μM ATRA for three days before IL-33): reduced Pin1 expression
- expression of IL-6, CXCL2, CSF3 and CCL5 in IRAKM stably expressing cells (DC2.4 cells; even at low ATRA dose (5 μM)): reduced Pin1 expression (FIG. 63D) and the expression of these target genes
- reduction of target gene expression in IRAKM S110E cells (DC2.4 cells; high ATRA dose (10 μM)): some degree of reduction in gene expression still persisted
- IL-33 induced asthma phenotypes (inflammation, airway remodeling, BALF cells) (IL-33-induced asthma; 10 mg 21 day ATRA-releasing pellets, 14 days before intranasal IL-33): dramatically attenuated
- BALF IL-12 and TNF-α levels (IL-33-induced asthma; same regimen): no significant effect
- BALF IL-13 and -5 levels (IL-33-induced asthma; same regimen): significantly reduced
- IRAKM accumulation and nuclear localization in BALF cells (IL-33-induced asthma; same regimen): almost completely abrogated
- IRAKM levels in the lung (IL-33-induced asthma; same regimen): reduction of IRAKM levels back to control treated mice
- Pin1 protein levels in the lung (IL-33-induced asthma; same regimen): effectively decreased the Pin1 protein levels only after IL-33 was administrated
- TH2 polarization (IL-5 and IL-13 secretion) [1]: drastically attenuated
- potency in reducing Pin1 levels and stability, comparison (Pin1 [3]): more potent in reducing Pin1 levels and stability than 13cRA
- Pin1 protein level (Pin1 [3]; immunoblot, not W34/K63A mutant): dose-dependently down-regulated Pin1
- Pin1 mRNA levels (Pin1 [3]; quantitative RT-PCR): no obvious effects
- PML-RARα level remaining in APL patients' bone marrow (Pin1 and PML-RARα; 3 days of ATRA treatment): ~40%
- Pin1 level remaining in APL patients' bone marrow (Pin1 and PML-RARα; 3 days of ATRA treatment): ~40%
- PML-RARα level remaining in APL patients' bone marrow (Pin1 and PML-RARα; 10 days of ATRA treatment): < 10%
- Pin1 level remaining in APL patients' bone marrow (Pin1 and PML-RARα; 10 days of ATRA treatment): < 10%
- PML-RARα in the bone marrow [4]: effectively reduced PML-RARα
- Pin1 levels in the bone marrow [4]: reduced Pin1 levels
- spleen weights [4]: nearly at basal levels
- Pin1 and PML-RARα expression ([5]; 10 μM, 96 hours, micrographs): reduced Pin1 and PML-RARα expression
- PML-RARα level in APL cells ([5]; 72 hours): dose-dependently reduced PML-RARα
- sensitivity of malignant breast cells [6]: differential susceptibility
- sensitivity of non-transformed MCF10A and HMLE cells [6]: highly resistant
- visual lupus-related phenotypes (fur loss, skin inflammation, lymphoid hyperplasia) (MRL/lpr lupus prone mice; 5 mg ATRA for 8 weeks from 8 weeks of age): drastically suppressed
- size of spleen and lymph node (MRL/lpr lupus prone mice; 14 week-old mouse): normal size
- glomerular deposition of IgG, C3, and CD68 (MRL/lpr lupus prone mice; mouse, in vivo): potently inhibited
- hyperkeratinosis (MRL/lpr lupus prone mice; mouse, in vivo): potently inhibited
- effects on normal breast cells ([8]; normal cells): no appreciable effects
- protein levels of Pin1 and its substrate oncogenes [8, 13]: dose-dependent protein reduction
- protein levels of Pin1 substrate tumor suppressors [8, 13]: protein induction
- Pin1-induced centrosome amplification [9]: dose-dependently and fully inhibited
- NB4 cell proliferation (human APL NB4 cells): suppressed
- half-life [10]: ~45 min
- growth inhibition of Pin1 KO MEFs ([11]; Pin1 KO MEFs): much more resistant
- growth inhibition of Pin1 WT MEFs ([11]; Pin1 WT MEFs): relatively high concentrations of ATRA were required
- Pin1 binding in FP assay (GST-Pin1 [12]): dramatically outperformed the other species
- transactivation of RAR downstream target genes (RAR): effectively and significantly induces transactivation of RAR downstreams
- degradation of PML-RARα and Pin1 in RARα, β, γ triple KO MEFs (Flag-PML-RARα and Pin1): induced degradation of PML-RARα and Pin1 similar to that for WT controls
- antitumor activity, intraperitoneal (MDA-MB-231 cells; 12.5 mg/kg i.p. 3 times a week for 8 weeks): modest antitumor activity
- Pin1 and cyclin D1 in xenograft tumors (MDA-MB-231 cells; 5 or 10 mg 21 day pellets): reduced both Pin1 and its substrate cyclin D1
- tumor growth, ATRA-releasing pellets (MDA-MB-231 cells; [14]): potently and dose-dependently inhibited tumor growth
- endogenous and exogenous Pin1 and cyclin D1 in tumors (MDA-MB-231 cells; [15]): dose-dependently reduced both endogenous and exogenous Pin1, and cyclin D1
- tumor growth of Pin1-overexpressing MDA-MB-231 cells (MDA-MB-231 cells; [15]): effectively inhibited by ATRA in a dose-dependent manner
- Pin1 and cyclin D1 in xenograft tumors (MDA-MB-468 cells; 5 or 10 mg 21 day pellets): reduced both Pin1 and its substrate cyclin D1
- tumor growth, ATRA-releasing pellets (MDA-MB-468 cells; [14]): potently and dose-dependently inhibited tumor growth
- Pin1-enhanced foci formation (SKBR3 cells): dose-dependently and fully inhibited
